This experiment deals with retinal and choroidal neovascularization (CNV). The experiment is described as follows: Laser-induced retinal and choroidal neovascularization (CNV). It is filed as in vivo, Brovin-Norway (BN) male rats. The conditions noted are these: negative control = 100%; intravitreal 10 μL, peptide concentration 10 mg/ml; 2 weeks after laser; conjugate = higher peptide content. The method, then:
Four groups consisted of a negative control group, a hyaluronic acid test group, an anti-Flt1 peptide (GGNQWFI) (SEQ ID NO: 3) test group, a test group of the hyaluronic acid-peptide conjugate with a higher peptide content as prepared from Preparation Example 3 (HA-GGNQWFI(2)). The anti-Flt1 peptide sample and the hyaluronic acid-peptide conjugate sample were made to have an identical peptide concentration of 10 mg/ml. First, the rat was put under anesthesia by being treated with 0.2 mL of a mixed solution (1:1) of 100 mg/ml of ketamine hydrochloride and 20 mg/ml of xylazine hydrochloride. […] The effect of inhibiting retinal and choroidal neovascularization was determined with a fluorescence microscope analysis using dextran-FITC (MW=40,000) after 2 weeks from the laser-induced damage. After being put under anesthesia, the rat was injected with 500 μL of a dextran-FITC solution (25 mg/mL) at its tail vein, and in 5 minutes, the choroid was separated and observed with a fluorescence microscope equipped with a digital camera (Olympus, Tokyo, Japan). The obtained images were analyzed with Image J program (NIH, Bethesda, Md.).

Consider one substance from patent US8895069B2, “Drug delivery system using hyaluronic acid-peptide conjugate micelle” (Postech Academy-Industry Foundation, priority 2011, dated 2014).

Ends that are not written are not given here.

Turning to GGNQWFI [anti-Flt1 peptide, GGNQWFI], the “average intensity of the fluorescence of CNV lesion” value is recorded as 61.4±4.4%.
